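A five-concentration, 48-hour dose response in 96-well plates underlies each endpoint, interpolated linearly between surrounding concentrations. Abbreviation: GI50, concentration required for 50% inhibition of growth.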 Active and inactive are the calls of the source. Rule as the data show it: active = GI50 up to about 1.1 µM and inactive = higher. A value given as a limit tells only on which side of the number the result lay.

14 compounds from ChEMBL document CHEMBL1201862, “PubChem BioAssay data set” (2004) can be followed below.

Some test systems named below: EKVX; HCC 2998; HL-60; HOP-62; HOP-92; NCI-H460; NCI-H522; OVCAR-8; RXF 393; SF-268; SF-539; SK-MEL-28; SK-MEL-5; SN12C; CAKI-1.
Holding throughout (assay): inhibition of tumour cell growth, NCI panel, 48 h

As to `O=C(c1ccc(NCN2C(=O)CCC2=O)cc1)c1ccc(NCN2C(=O)CCC2=O)cc1`, the GI50 in the assay with EKVX was > 100 µM (inactive); in the assay with HCC 2998, > 100 µM (inactive); with HL-60 it was 18.9 µM (inactive); in the assay with HOP-62, > 100 µM (inactive); in the assay with HOP-92, > 100 µM (inactive); in the assay with NCI-H460, > 100 µM (inactive). For the same compound, the GI50 in the assay on NCI-H522, with OVCAR-8, in the assay on RXF 393, in the assay on SF-268, in the assay with SF-539 and in the assay on SK-MEL-28 was > 100 µM (inactive) in each case. Besides, the GI50 in the assay on SK-MEL-5 and in the assay on SN12C was > 100 µM (inactive) throughout.

Consider `COC(=O)C(Cc1nc2ccc(Cl)cc2nc1O)/C(=N/NC(N)=O)C(=O)Nc1ccc(Cl)cc1` (configuration not stated), for which the GI50 in the assay with CAKI-1 is > 100 µM (inactive); in the assay with EKVX it was 20.4 µM (inactive); with HCC 2998, > 100 µM (inactive); in the assay with HL-60 it was > 100 µM (inactive); in the assay with HOP-62 it was > 100 µM (inactive); with HOP-92 it was > 100 µM (inactive). The GI50 in the assay with NCI-H460, with NCI-H522, with OVCAR-8, in the assay on RXF 393, with SF-268 and in the assay on SF-539 was > 100 µM (inactive) each time. The GI50 with SK-MEL-28, in the assay with SK-MEL-5 and in the assay with SN12C was > 100 µM (inactive) in each case.

In the case of `CC1C[C@@H]2C(=O)NC(=O)[C@@H]2c2c1c1ccccc1n2C` (some centres not stated), the GI50 in the assay on CAKI-1, in the assay on EKVX, with HCC 2998, with HL-60, in the assay with HOP-62 and in the assay on HOP-92 was > 100 µM (inactive) throughout. In addition, the GI50 in the assay on NCI-H460, in the assay on NCI-H522, in the assay on OVCAR-8, with RXF 393, in the assay with SF-268 and in the assay with SF-539 was > 100 µM (inactive) throughout. For the same compound, the GI50 in the assay with SK-MEL-28, in the assay with SK-MEL-5 and with SN12C was > 100 µM (inactive) each time.

On to `Cc1cccc(C(C)C)c1N1C(=O)C(=O)C(c2nc3ccccc3o2)C(=O)C1=O`, for which the GI50 in the assay with CAKI-1 is > 100 µM (inactive); in the assay with EKVX, 42.7 µM (inactive); in the assay with HCC 2998 it was 95.7 µM (inactive); in the assay with HL-60, 30.3 µM (inactive); with HOP-62, > 100 µM (inactive); in the assay with HOP-92 it was > 100 µM (inactive). Also, the GI50 in the assay on NCI-H460 was 76.7 µM (inactive); in the assay on NCI-H522, 29.5 µM (inactive); in the assay on OVCAR-8, > 100 µM (inactive); in the assay with RXF 393, 21.4 µM (inactive); in the assay on SF-268, > 100 µM (inactive); with SF-539, > 100 µM (inactive). In addition, the GI50 in the assay on SK-MEL-28 was > 100 µM (inactive); in the assay on SK-MEL-5, 60.1 µM (inactive); with SN12C it was > 100 µM (inactive).

As to `CN(C)[C@@H]1C(O)=C(C(N)=O)C(=O)[C@@]2(O)C(O)=C3C(=O)c4c(O)cccc4C[C@H]3C[C@@H]12`, the GI50 with CAKI-1 is 1.98 µM (inactive); in the assay on HCC 2998, 1.78 µM (inactive); with HL-60, 2 µM (inactive); in the assay with HOP-62, 2 µM (inactive); in the assay with HOP-92 it was 2.26 µM (inactive); with NCI-H460, 2.18 µM (inactive). The GI50 in the assay on NCI-H522 is 2.13 µM (inactive); in the assay on OVCAR-8 it was 2.89 µM (inactive); in the assay on RXF 393 it was 1.69 µM (inactive); with SF-268 it was 1.73 µM (inactive); in the assay on SF-539, 2 µM (inactive); in the assay on SK-MEL-28, 1.77 µM (inactive). Besides, the GI50 is 1.75 µM (inactive) with SK-MEL-5 and 3.44 µM (inactive) in the assay on SN12C.

With `COC(=O)CCC(NC(=S)N/N=C/c1ccccn1)C(=O)OC` (configuration not stated), the GI50 was > 100 µM (inactive) with EKVX; > 100 µM (inactive) in the assay on HCC 2998; 84.3 µM (inactive) in the assay with HL-60; > 100 µM (inactive) with HOP-62; 84.5 µM (inactive) in the assay with HOP-92; > 100 µM (inactive) with NCI-H460. Besides, the GI50 in the assay with NCI-H522, with OVCAR-8, with RXF 393, in the assay on SF-268, in the assay with SF-539 and in the assay on SK-MEL-28 was > 100 µM (inactive) each time. The GI50 with SK-MEL-5 and with SN12C was > 100 µM (inactive) throughout.

Regarding `Cc1nc(C(N)=S)sc1C(=O)CC(=O)C(=O)Nc1ccccc1[N+](=O)[O-]`, the GI50 in the assay on CAKI-1, in the assay with EKVX, in the assay with HCC 2998, with HL-60, with HOP-62 and in the assay on HOP-92 was > 100 µM (inactive) in each case. Besides, the GI50 in the assay with NCI-H460, in the assay on NCI-H522, in the assay on OVCAR-8, in the assay with RXF 393, in the assay with SF-268 and in the assay with SF-539 was > 100 µM (inactive) throughout. In addition, the GI50 with SK-MEL-28 and in the assay on SK-MEL-5 was > 100 µM (inactive) throughout.

As to `O=C1CC(O)(c2ccccc2)C(c2ccccc2)=C1c1ccccc1` (configuration not stated), the GI50 with CAKI-1 is 31.3 µM (inactive); in the assay on EKVX, 40.9 µM (inactive); with HCC 2998, 57.1 µM (inactive); in the assay on HL-60 it was 24.3 µM (inactive); in the assay with HOP-62, 38.2 µM (inactive); with HOP-92, 17.3 µM (inactive). Moreover, the GI50 in the assay with NCI-H460 is 33.2 µM (inactive); in the assay with NCI-H522, 17.7 µM (inactive); in the assay on OVCAR-8, 47 µM (inactive); in the assay on RXF 393 it was 28.7 µM (inactive); with SF-268, 37.7 µM (inactive); in the assay on SK-MEL-28 it was 39.8 µM (inactive). In addition, the GI50 in the assay with SK-MEL-5 was 39.6 µM (inactive); with SN12C, 38.6 µM (inactive).

With `NC(CCCC(N)P(=O)(O)O)P(=O)(O)O` (configuration not stated), the GI50 in the assay on CAKI-1 was > 100 µM (inactive); in the assay with EKVX, > 100 µM (inactive); in the assay with HCC 2998, > 100 µM (inactive); in the assay with HOP-92, 64.7 µM (inactive); with NCI-H460, > 100 µM (inactive); in the assay with NCI-H522, > 100 µM (inactive). The GI50 with OVCAR-8, with RXF 393, in the assay with SF-539, in the assay on SK-MEL-28, with SK-MEL-5 and in the assay on SN12C was > 100 µM (inactive) in each case.

For `CCN(CC)c1ccc2cc3ccc(N(CC)CC)cc3[o+]c2c1`, the GI50 in the assay with CAKI-1 is 4.06 µM (inactive); with EKVX, 5.5 µM (inactive); in the assay with HCC 2998, 4.39 µM (inactive); with HL-60, 0.0773 µM (active); with HOP-62, 3.31 µM (inactive); with HOP-92 it was 0.693 µM (active). For the same compound, the GI50 was 1.78 µM (inactive) in the assay with NCI-H460; 1.69 µM (inactive) in the assay on NCI-H522; 0.407 µM (active) in the assay with OVCAR-8; 2.36 µM (inactive) in the assay on RXF 393; 1.29 µM (inactive) with SF-268; 2.02 µM (inactive) with SF-539. The GI50 in the assay on SK-MEL-28 was 2.56 µM (inactive); with SK-MEL-5, 2.34 µM (inactive); in the assay on SN12C, 0.832 µM (active).

Turning to `CN1c2ccccc2N(C)C2C1N(C)c1ccccc1N2C` (configuration not stated), the GI50 in the assay with CAKI-1 is 15.1 µM (inactive); in the assay with EKVX, 61.5 µM (inactive); in the assay with HCC 2998, 9.73 µM (inactive); in the assay on HL-60, 2.29 µM (inactive); in the assay with HOP-62, 34.3 µM (inactive); in the assay on HOP-92, 10.4 µM (inactive). In addition, the GI50 in the assay with NCI-H460 was 20.8 µM (inactive); in the assay with NCI-H522, 4.73 µM (inactive); in the assay with OVCAR-8, 18.6 µM (inactive); in the assay with RXF 393, 11.1 µM (inactive); in the assay with SF-268, 12.3 µM (inactive); in the assay with SF-539, 15.3 µM (inactive). For the same compound, the GI50 was 4.69 µM (inactive) in the assay on SK-MEL-28, 3.72 µM (inactive) with SK-MEL-5 and 20 µM (inactive) in the assay with SN12C.

On to `COc1cc2c(cc1O)[C@H](C)C(c1ccc(Cl)cc1)O2` (some centres not stated), for which the GI50 in the assay on CAKI-1 is 11.6 µM (inactive); in the assay with EKVX, 23 µM (inactive); in the assay with HCC 2998 it was 18.5 µM (inactive); with HL-60 it was 14.2 µM (inactive); in the assay on HOP-62, 22.6 µM (inactive); with HOP-92 it was 17.3 µM (inactive). Also, the GI50 in the assay with NCI-H460 is 17.9 µM (inactive); in the assay with NCI-H522 it was 13.3 µM (inactive); in the assay with OVCAR-8, > 10 µM (inactive); in the assay on RXF 393 it was 24.6 µM (inactive); with SF-268, 20.7 µM (inactive); with SF-539, 57.9 µM (inactive). Also, the values for the GI50 in the assay on SK-MEL-28 and in the assay with SK-MEL-5 were 28.6 µM (inactive) and 16.3 µM (inactive), respectively.

As for `CC(C)(CN1CCCCC1)C(=O)/C=C/c1ccc(Cl)c(Cl)c1`, the GI50 was 1.76 µM (inactive) with EKVX; 1.74 µM (inactive) in the assay on HCC 2998; 1.53 µM (inactive) with HL-60; 1.95 µM (inactive) in the assay on HOP-62; 1.03 µM (active) in the assay with HOP-92; 1.65 µM (inactive) with NCI-H460. The GI50 in the assay with NCI-H522 is 1.21 µM (inactive); in the assay with OVCAR-8, > 100 µM (inactive); with RXF 393, 1.17 µM (inactive); in the assay on SF-268 it was 1.8 µM (inactive); in the assay on SF-539, 2.07 µM (inactive); in the assay on SK-MEL-28, 1.86 µM (inactive). For the same compound, the GI50 in the assay on SK-MEL-5 was 2.07 µM (inactive); in the assay on SN12C it was 1.56 µM (inactive).

Consider `C=C1C(=O)c2cc3c(cc2C(c2cc(OC)c(OC)c(OC)c2)[C@@H]1C(=O)O)OCO3` (some centres not stated), for which the GI50 is 54.2 µM (inactive) in the assay with CAKI-1; > 100 µM (inactive) with EKVX; > 100 µM (inactive) in the assay with HCC 2998; 15.5 µM (inactive) in the assay on HOP-92; 37.1 µM (inactive) in the assay on NCI-H460; 28.3 µM (inactive) in the assay on NCI-H522. In addition, the GI50 with OVCAR-8 is > 100 µM (inactive); in the assay on RXF 393 it was 43.9 µM (inactive); with SF-539 it was 63.7 µM (inactive); with SK-MEL-28 it was 69.7 µM (inactive); with SK-MEL-5, 50.7 µM (inactive); in the assay with SN12C it was 43.1 µM (inactive).
